Results published in paper PMC6078800 (Nature biotechnology, 2018).

How the values were obtained:
Mp-KYNase = target: T1, Mp-KYNase (Mucilaginibacter paludis, UniProt H1YAV1); assay: absorbance at […] nm, initial rates, Michaelis-Menten fit; format: biochemical; details: DPBS pH 7.4; enzyme PLP-loaded; not PEGylated
T1 sequence (H1YAV1 1-429): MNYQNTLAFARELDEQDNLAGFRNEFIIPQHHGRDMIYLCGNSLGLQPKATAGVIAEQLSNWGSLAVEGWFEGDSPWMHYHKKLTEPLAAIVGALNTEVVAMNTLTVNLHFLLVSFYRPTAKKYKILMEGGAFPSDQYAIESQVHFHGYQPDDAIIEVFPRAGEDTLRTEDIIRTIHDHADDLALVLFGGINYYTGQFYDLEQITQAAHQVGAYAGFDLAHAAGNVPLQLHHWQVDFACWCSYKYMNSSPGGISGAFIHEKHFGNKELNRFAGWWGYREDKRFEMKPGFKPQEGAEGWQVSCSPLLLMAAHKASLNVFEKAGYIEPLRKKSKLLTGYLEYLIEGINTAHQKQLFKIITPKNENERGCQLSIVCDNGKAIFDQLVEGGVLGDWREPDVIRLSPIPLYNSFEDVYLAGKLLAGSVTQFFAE

Pf-KYNase = target: T2, Pf-KYNase (Pseudomonas fluorescens, UniProt P83788); assay: as above; format: biochemical; details: DPBS pH 7.4; enzyme PLP-loaded; not PEGylated
T2 sequence (P83788 1-416): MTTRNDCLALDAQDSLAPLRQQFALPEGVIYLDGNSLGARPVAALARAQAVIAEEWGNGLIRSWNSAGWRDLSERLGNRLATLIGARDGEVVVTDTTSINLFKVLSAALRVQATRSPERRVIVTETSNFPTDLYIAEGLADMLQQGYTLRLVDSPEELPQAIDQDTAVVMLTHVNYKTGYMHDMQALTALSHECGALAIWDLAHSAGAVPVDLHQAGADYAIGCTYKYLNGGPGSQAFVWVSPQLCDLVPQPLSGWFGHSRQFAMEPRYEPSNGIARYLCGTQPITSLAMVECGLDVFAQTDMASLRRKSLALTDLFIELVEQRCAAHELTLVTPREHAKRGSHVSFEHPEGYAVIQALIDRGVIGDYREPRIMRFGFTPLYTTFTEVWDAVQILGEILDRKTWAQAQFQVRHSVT

In the case of `Nc1ccccc1C(=O)C[C@H](N)C(=O)O` [kynurenine], the KM (Mp-KYNase) is reported as “kinetic parameters for the kynureninase enzymes against both kynurenine (Kyn, Sigma)” and the KM (Pf-KYNase) is reported as “kinetic parameters for the kynureninase enzymes against both kynurenine (Kyn, Sigma)”.
